Here are results for four compounds from ChEMBL document CHEMBL2331418, “Synthesis of tartaric acid analogues of FR258900 and their evaluation as glycogen phosphorylase inhibitors” (Bioorg Med Chem Lett, 2013).

SMILES strings stand for the structures.

Experiment [1] in a line: Non-competitive inhibition of rabbit muscle glycogen phosphorylase b using constant concentration of AMP, glycogen and varying concentration of glucose-1-phosphate as substrate. The experiment is classed as tissue-based, Oryctolagus cuniculus, Muscle tissue.
Experiment [2] deals with T1, Glycogen phosphorylase, liver form (Homo sapiens, UniProt P06737).
T1 sequence (P06737 whole entry): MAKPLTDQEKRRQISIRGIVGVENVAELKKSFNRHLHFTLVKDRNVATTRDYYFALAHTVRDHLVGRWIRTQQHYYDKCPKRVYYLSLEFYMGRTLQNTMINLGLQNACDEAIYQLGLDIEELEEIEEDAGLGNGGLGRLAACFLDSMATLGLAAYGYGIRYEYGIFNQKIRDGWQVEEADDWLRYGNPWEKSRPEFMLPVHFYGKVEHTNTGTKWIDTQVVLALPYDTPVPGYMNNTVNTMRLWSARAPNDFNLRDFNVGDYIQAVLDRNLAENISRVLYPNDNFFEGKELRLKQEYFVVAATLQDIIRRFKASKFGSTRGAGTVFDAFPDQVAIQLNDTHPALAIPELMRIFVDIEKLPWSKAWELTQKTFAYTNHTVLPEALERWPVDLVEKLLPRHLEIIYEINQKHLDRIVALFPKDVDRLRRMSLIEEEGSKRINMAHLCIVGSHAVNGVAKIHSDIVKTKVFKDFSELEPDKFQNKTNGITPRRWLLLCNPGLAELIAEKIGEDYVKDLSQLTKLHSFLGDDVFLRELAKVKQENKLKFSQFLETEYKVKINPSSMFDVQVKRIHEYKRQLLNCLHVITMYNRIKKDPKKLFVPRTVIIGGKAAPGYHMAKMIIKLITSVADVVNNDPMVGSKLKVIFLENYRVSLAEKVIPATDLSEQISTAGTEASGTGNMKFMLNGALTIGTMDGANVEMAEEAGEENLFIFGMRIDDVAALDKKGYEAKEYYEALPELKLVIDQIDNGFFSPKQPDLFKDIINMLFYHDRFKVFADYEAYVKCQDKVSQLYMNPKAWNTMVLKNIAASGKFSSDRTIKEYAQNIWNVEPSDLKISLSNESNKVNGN
Kind of experiment: Inhibition of human liver glycogen phosphorylase.

Experiment [3] is described as follows: Competitive inhibition of rabbit muscle glycogen phosphorylase b using constant concentration of glucose-1-phosphate, glycogen and varying concentration of AMP as substrate. The experiment is classed as tissue-based, Oryctolagus cuniculus, Muscle tissue.
Experiment [4] addresses T2, Glycogen phosphorylase, muscle form (Oryctolagus cuniculus, UniProt P00489).
T2 sequence (P00489 whole entry): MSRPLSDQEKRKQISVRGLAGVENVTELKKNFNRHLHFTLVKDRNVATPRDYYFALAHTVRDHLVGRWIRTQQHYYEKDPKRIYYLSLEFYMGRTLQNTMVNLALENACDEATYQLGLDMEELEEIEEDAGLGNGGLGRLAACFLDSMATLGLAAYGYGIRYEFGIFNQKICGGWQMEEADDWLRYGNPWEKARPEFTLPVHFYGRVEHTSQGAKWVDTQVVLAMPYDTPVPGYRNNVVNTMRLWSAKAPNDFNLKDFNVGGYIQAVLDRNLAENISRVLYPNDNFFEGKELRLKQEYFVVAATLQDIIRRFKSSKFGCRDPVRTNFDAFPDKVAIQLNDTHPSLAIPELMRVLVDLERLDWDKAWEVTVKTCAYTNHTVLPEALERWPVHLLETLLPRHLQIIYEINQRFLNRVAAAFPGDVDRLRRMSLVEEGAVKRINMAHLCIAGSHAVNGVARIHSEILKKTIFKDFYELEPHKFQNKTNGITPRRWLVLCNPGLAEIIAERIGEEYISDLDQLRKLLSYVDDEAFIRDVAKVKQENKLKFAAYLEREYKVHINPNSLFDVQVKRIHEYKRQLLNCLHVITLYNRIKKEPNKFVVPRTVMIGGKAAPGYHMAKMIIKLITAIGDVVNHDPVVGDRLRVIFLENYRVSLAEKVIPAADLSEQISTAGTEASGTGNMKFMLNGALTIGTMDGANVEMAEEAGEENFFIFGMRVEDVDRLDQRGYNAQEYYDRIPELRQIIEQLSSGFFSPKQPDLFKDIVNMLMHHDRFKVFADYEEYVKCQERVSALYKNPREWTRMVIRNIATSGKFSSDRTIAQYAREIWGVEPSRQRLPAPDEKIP
Kind of experiment: Inhibition of rabbit muscle glycogen phosphorylase.

For the compound `O=C(O)C[C@H](OC(=O)/C=C/c1ccc(O)cc1)[C@@H](OC(=O)/C=C/c1ccc(O)cc1)C(=O)O`, the inhibition constant (Ki) (commonly a dissociation constant, usually derived from enzyme kinetics or from competition with a known ligand) is 5.47 µM in experiment [1], 0.2 µM in experiment [3] and 0.46 µM in experiment [4]. The midpoint of inhibition in experiment [2], the IC50, lay at 2.5 µM.
As to `O=C(/C=C/c1ccc(O)cc1)O[C@@H](C(=O)O)[C@@H](OC(=O)/C=C/c1ccc(O)cc1)C(=O)O`, the Ki came out at 300 µM in experiment [1] and 11.3 µM in experiment [3].
On the same counts, the results for `O=C(/C=C/c1ccc(O)cc1)O[C@H](C(=O)O)[C@@H](OC(=O)/C=C/c1ccc(O)cc1)C(=O)O` are 71.4 µM and 5.68 µM.
The matching figures for `O=C(/C=C/c1ccc(O)cc1)O[C@H](C(=O)O)[C@H](OC(=O)/C=C/c1ccc(O)cc1)C(=O)O`: 109 µM and 26.4 µM.
